Test results published in patent publication US8835440B2, “Cyclic pyrimidin-4-carboxamides as CCR2 receptor antagonists for treatment of inflammation, asthma and COPD” (Boehringer Ingelheim International GmbH, priority 2008, dated 2014).

Target: T1, CCR2 (Homo sapiens, UniProt P41597)
T1 construct: Membranes were prepared from THP-1 cells; endogenous in cells; host or cells: THP-1 cells (membrane preparation)
T1 sequence (P41597 1-360 isoform P41597-2): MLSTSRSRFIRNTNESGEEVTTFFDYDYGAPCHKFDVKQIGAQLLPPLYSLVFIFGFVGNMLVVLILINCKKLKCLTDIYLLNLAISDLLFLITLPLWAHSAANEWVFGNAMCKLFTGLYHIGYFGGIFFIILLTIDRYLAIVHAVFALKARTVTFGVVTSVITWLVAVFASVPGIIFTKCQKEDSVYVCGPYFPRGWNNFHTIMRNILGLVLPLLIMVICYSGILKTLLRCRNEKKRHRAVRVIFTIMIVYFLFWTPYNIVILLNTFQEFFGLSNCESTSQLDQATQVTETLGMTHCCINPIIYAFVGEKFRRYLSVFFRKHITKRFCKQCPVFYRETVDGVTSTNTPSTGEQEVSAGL
Experiment: CCR2 receptor membrane binding assay ([125I]MCP-1, THP-1 cell membranes, SPA beads)
Conditions: for remaining activity at 10 µM: read-out: CCR2 % ctrl @ 10 μM; for Ki: dissociation constant hKi, [125I]MCP-1 binding to THP-1 membranes
Procedure, shortened: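 hKi was derived by iterative law-of-mass-action fitting of scintillation counts read at 8 h. Compound (1% DMSO final) competed with ca. 25000 cpm [125I]MCP-1 for THP-1 membranes bound to WGA-PVT beads. Buffer: 25 mM HEPES pH 7.2, 5 mM MgCl2, 0.5 mM CaCl2, 0.2% BSA.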

[1] = @ 10 μM test compound, THP-1 membranes

remaining activity at 10 µM [1] | Ki | CCR2 % ctrl @ 10 μM (@ 10 μM test compound, THP-1 membranes, 10 µM) | SMILES
19% | 888 nM | – | Cc1cc(CNc2ncnc(C(=O)N3CCC(N4CCCCC4)CC3)c2C)ccc1F [Example 135]
14% | 773 nM | – | COc1ccc(CCNc2ncnc(C(=O)N3CCC(N4CCCCC4)CC3)c2C)cc1Cl [Example 136]
– | 634 nM | 14 % ctrl | Cc1ccc(CNc2ncnc(C(=O)N3CCC(N4CCCCC4)CC3)c2C)cc1F [Example 137]
6% | 145 nM | – | Cc1c(NCC2CCC(c3ccccc3)CC2)ncnc1C(=O)N1CCC(N2CCCCC2)CC1 (stereo not shown) [Example 138]
9% | 443 nM | – | Cc1c(NCCc2cccc(Cl)c2)ncnc1C(=O)N1CCC(N2CCCCC2)CC1 [Example 139]
16% | 692 nM | – | Cc1c(NCc2cccc(Cl)c2)ncnc1C(=O)N1CCC(N2CCCCC2)CC1 [Example 140]
7% | 422 nM | – | Cc1c(NCCc2ccc(Cl)cc2)ncnc1C(=O)N1CCC(N2CCCCC2)CC1 [Example 141]
8% | 529 nM | – | Cc1c(NCc2ccc(Cl)c(C(F)(F)F)c2)ncnc1C(=O)N1CCC(N2CCCCC2)CC1 [Example 142]
8% | 422 nM | – | Cc1ccc(CCNc2ncnc(C(=O)N3CCC(N4CCCCC4)CC3)c2C)cc1C [Example 143]
7% | 91 nM | – | Cc1c(NC[C@@H]2CCC[C@@H](c3ccccc3)C2)ncnc1C(=O)N1CCC(N2CCC(O)CC2)CC1 [Example 144]
17% | 181 nM | – | Cc1c(NC[C@@H]2CCC[C@H](c3ccccc3)C2)ncnc1C(=O)N1CCC(N2CCC(O)CC2)CC1 [Example 145]
7% | 3 nM | – | Cc1c(NC[C@H]2CCC[C@@H](c3ccccc3)C2)ncnc1C(=O)N1CCC(N2CCC(N(C)S(C)(=O)=O)CC2)CC1 [Example 146]
8% | 40 nM | – | CCS(=O)(=O)N(C)C1CCN(C2CCN(C(=O)c3ncnc(NC[C@@H]4C[C@H]4c4ccccc4)c3C)CC2)CC1 [Example 147]
4% | 119 nM | – | Cc1c(NCC2CCCc3ccccc32)ncnc1C(=O)N1CCC(N2CCC(N(C)S(C)(=O)=O)CC2)CC1 (stereo not shown) [Example 148]
10% | 41 nM | – | Cc1c(NC[C@@H]2CCN(c3ccccc3)C2)ncnc1C(=O)N1CCC(N2CCC(N(C)S(C)(=O)=O)CC2)CC1 [Example 149]
3% | 12 nM | – | Cc1c(NC[C@H]2CCC[C@H](c3ccccc3)C2)ncnc1C(=O)N1CCC(N2CCC(N(C)S(C)(=O)=O)CC2)CC1 [Example 150]
7% | 14 nM | – | Cc1c(NC[C@@H]2CCC[C@H](c3ccccc3)C2)ncnc1C(=O)N1CCC(N2CCC(N(C)S(C)(=O)=O)CC2)CC1 [Example 151]
7% | 44 nM | – | Cc1c(NC[C@@H]2C[C@H]2c2ccccc2)ncnc1C(=O)N1CCC(N2CCC(N(C)S(C)(=O)=O)CC2)CC1 [Example 152]
1% | 27 nM | – | Cc1c(NCCc2ccc(C(C)(C)C)cc2)ncnc1C(=O)N1CCC(N2CCC(N(C)S(C)(=O)=O)CC2)CC1 [Example 153]
8% | 76 nM | – | Cc1c(NCC2CCCN(c3ccccc3)C2)ncnc1C(=O)N1CCC(N2CCC(N(C)S(C)(=O)=O)CC2)CC1 (stereo not shown) [Example 155]
8% | 18 nM | – | Cc1c(NC[C@H]2CCN(c3ccccc3)C2)ncnc1C(=O)N1CCC(N2CCC(N(C)S(C)(=O)=O)CC2)CC1 [Example 156]
23% | 1150 nM | – | Cc1c(NCc2cnc3ccccc3c2)ncnc1C(=O)N1CCC(N2CCC(N(C)S(C)(=O)=O)CC2)CC1 [Example 157]

remaining activity at 10 µM [1] | Ki | CCR2 % ctrl @ 10 μM (@ 10 μM test compound, THP-1 membranes, 10 µM) | SMILES
0% | 6 nM | – | Cc1c(NC[C@@H]2CCC[C@@H](c3ccccc3)C2)ncnc1C(=O)N1CCC(N2CCC(N(C)S(C)(=O)=O)CC2)CC1 [Example 158]
4% | 25 nM | – | Cc1nc(NC[C@H]2CCN(c3ccccc3)C2)c(C)c(C(=O)N2CCC(N3CCC(N(C)S(C)(=O)=O)CC3)CC2)n1 [Example 159]
– | 10 nM | – | COc1nc(NCC2CCCC(c3ccccc3)C2)c(C)c(C(=O)N2CCC(N3CCC(N(C)S(C)(=O)=O)CC3)CC2)n1 (stereo not shown) [Example 159a]
– | 18 nM | – | CNC(=O)C1CCN(C2CCN(C(=O)c3ncnc(NCC4CCCC(c5ccc(F)cc5)C4)c3C)CC2)CC1 (stereo not shown) [Example 159aa]
– | 27 nM | – | Cc1c(NCC2CCC(c3ccc(Cl)cc3)O2)ncnc1C(=O)N1CCC(N2CCC(N(C)S(C)(=O)=O)CC2)CC1 (stereo not shown) [Example 159ab]
– | 5940 nM | – | Cc1c(NCC2CCOCC2)ncnc1C(=O)N1CCC(N2CCC(N(C)S(C)(=O)=O)CC2)CC1 [Example 159ac]
– | 7 nM | – | COc1nc(NCc2ccc(C(C)(C)C)cc2)c(C)c(C(=O)N2CCC(N3CCC(N(C)S(C)(=O)=O)CC3)CC2)n1 [Example 159b]
– | 11 nM | – | Cc1c(NCC2CCCC(c3ccc(F)cc3)C2)ncnc1C(=O)N1CCC(N2CCC(NS(C)(=O)=O)CC2)CC1 (stereo not shown) [Example 159ba]
– | 48 nM | – | Cc1c(NCC2CCC(C)C2)ncnc1C(=O)N1CCC(N2CCC(N(C)S(C)(=O)=O)CC2)CC1 (stereo not shown) [Example 159bb]
– | 3490 nM | – | Cc1c(NCC2CCCOC2)ncnc1C(=O)N1CCC(N2CCC(N(C)S(C)(=O)=O)CC2)CC1 (stereo not shown) [Example 159bc]
– | 13 nM | – | Cc1c(NCC2CCC(c3ccc(Cl)cc3)C2)ncnc1C(=O)N1CCC(N2CCC(N(C)S(C)(=O)=O)CC2)CC1 (stereo not shown) [Example 159c]
– | 3 nM | – | Cc1c(NCC2CCCC(c3ccc(Cl)cc3)C2)ncnc1C(=O)N1CCC(N2CCC(NS(C)(=O)=O)CC2)CC1 (stereo not shown) [Example 159ca]
– | 39 nM | – | Cc1ccc(C2CCC(CNc3ncnc(C(=O)N4CCC(N5CCC(N(C)S(C)(=O)=O)CC5)CC4)c3C)O2)cc1 (stereo not shown) [Example 159cb]
– | 10 nM | – | Cc1nc(NC[C@@H]2CCC[C@H](c3ccc(C)o3)C2)c(C)c(C(=O)N2CCC(N3CCC(N(C)S(C)(=O)=O)CC3)CC2)n1 [Example 159cc]
– | 15 nM | – | Cc1c(NCC2CCC(c3ccccc3)C2)ncnc1C(=O)N1CCC(N2CCC(N(C)S(C)(=O)=O)CC2)CC1 (stereo not shown) [Example 159d]
– | 5 nM | – | Cc1c(NCC2CCCC(c3ccc(Cl)cc3)C2)ncnc1C(=O)N1CCC(N2CCC(N(C)S(C)(=O)=O)CC2)CC1 (stereo not shown) [Example 159da]
– | 16 nM | – | Cc1c(NCC2CCCC(c3cccc(F)c3)C2)ncnc1C(=O)N1CCC(N2CCC(N(C)S(C)(=O)=O)CC2)CC1 (stereo not shown) [Example 159db]
– | 38 nM | – | COC1COCCC1NC1CCN(C(=O)c2ncnc(NCC3CCCCC3)c2C)CC1 (stereo not shown) [Example 159dc]
– | 28 nM | – | Cc1c(NCC2CCCCC2)ncnc1C(=O)N1CCC(N2CCC(N(C)S(C)(=O)=O)CC2)CC1 [Example 159e]
– | 7 nM | – | CNC(=O)C1CCN(C2CCN(C(=O)c3ncnc(NCC4CCCC(c5ccc(Cl)cc5)C4)c3C)CC2)CC1 (stereo not shown) [Example 159ea]
– | 72 nM | – | Cc1c(NCC2CC(c3ccccc3)CO2)ncnc1C(=O)N1CCC(N2CCC(N(C)S(C)(=O)=O)CC2)CC1 (stereo not shown) [Example 159eb]
– | 961 nM | – | COC1COCCC1NC1CCN(C(=O)c2ncnc(NC3Cc4ccccc4C3)c2C)CC1 (stereo not shown) [Example 159ec]

SMILES | remaining activity at 10 µM [1] | Ki | CCR2 % ctrl @ 10 μM (@ 10 μM test compound, THP-1 membranes, 10 µM)
Cc1c(NCC2CCCN(c3ccc(C#N)c(Cl)c3)C2)ncnc1C(=O)N1CCC(N2CCC(N(C)S(C)(=O)=O)CC2)CC1 (stereo not shown) [Example 154] | 15% | 123 nM | –
